Experimental data reported in patent US20220062240A1, “METHODS OF TREATING CANCER USING A CLK INHIBITOR” (BioSplice Therapeutics, Inc., priority 2018, published 2022).
pEC50: −log10 of the molar value. Like-named read-outs stand apart in the source and are kept apart here.

Legend:
CLK3 = CLK3 (Homo sapiens, UniProt P49761); assay: CLK3 kinase activity assay (Z-lyte, Ser/Thr 18 peptide)
BT-549 = assay: CellTiter-Glo Viability Assay, breast cancer; format: cell-based; settings: Homo sapiens, 96 h; BT-549, breast cancer, four days; read-out: EC50
HCC1599 = assay: CellTiter-Glo Viability Assay, breast cancer; format: cell-based; settings: Homo sapiens, 96 h; HCC1599, breast cancer, four days; read-out: EC50
T47D = assay: CellTiter-Glo Viability Assay, breast cancer; format: cell-based; settings: Homo sapiens, 96 h, breast cancer, four days, read-out: EC50
ZR-75-1 = assay: CellTiter-Glo Viability Assay, breast cancer; format: cell-based; settings: Homo sapiens, 96 h; ZR-75-1, breast cancer, four days; read-out: EC50
MCF7 = assay: CellTiter-Glo Viability Assay, breast cancer; format: cell-based; settings: Homo sapiens, 96 h; MCF7, breast cancer, four days; read-out: EC50
DU4475 = assay: CellTiter-Glo Viability Assay, breast cancer; format: cell-based; settings: Homo sapiens, DU-4475, 96 h; DU4475, breast cancer, four days; read-out: EC50
CAMA1 = assay: CellTiter-Glo Viability Assay, breast cancer; format: cell-based; settings: Homo sapiens, CAMA-1, 96 h; CAMA1, breast cancer, four days; read-out: EC50
MDA-MB-231-Luc = assay: CellTiter-Glo Viability Assay, breast cancer; format: cell-based; settings: Homo sapiens, 96 h; MDA-MB-231-Luc, breast cancer, four days; read-out: EC50
[1] = tested on: haematopoietic & lymphoid tumors (13 cell lines); assay: CellTiter-Glo Viability Assay, haematopoietic & lymphoid tumors; format: cell-based; settings: Homo sapiens, inhibition of cancer cell proliferation
CLK2 = molecular target: T1, CLK2 (Homo sapiens, UniProt P49760); assay: CLK2 kinase activity assay (Z-lyte, Ser/Thr 6 peptide); format: biochemical; settings: recombinant CLK2 kinase, ATP 60 μM; read-out: EC50
T1 construct: purchased Thermo Fisher (Life Technologies), Z'-LYTE Kinase Assay Kits
Procedure: All reactions were performed in duplicate.

[2] = tested on: ovarian cancer (4 cell lines); assay: CellTiter-Glo Viability Assay, ovarian cancer; format: cell-based; settings: Homo sapiens, inhibition of cancer cell proliferation
[3] = tested on: liver cancer (3 cell lines); assay: CellTiter-Glo Viability Assay, liver cancer; format: cell-based; settings: Homo sapiens, inhibition of cancer cell proliferation
[4] = tested on: lung cancer (4 cell lines); assay: CellTiter-Glo Viability Assay, lung cancer; format: cell-based; settings: Homo sapiens, inhibition of cancer cell proliferation
[5] = tested on: colorectal cancer (6 cell lines); assay: CellTiter-Glo Viability Assay, colorectal cancer; format: cell-based; settings: Homo sapiens, inhibition of cancer cell proliferation
[6] = tested on: pancreatic cancer (8 cell lines); assay: CellTiter-Glo Viability Assay, pancreatic cancer; format: cell-based; settings: Homo sapiens, inhibition of cancer cell proliferation
[7] = tested on: prostate cancer (5 cell lines); assay: CellTiter-Glo Viability Assay, prostate cancer; format: cell-based; settings: Homo sapiens
all 50 cell lines = assay: CellTiter-Glo Viability Assay, average across all cell lines; format: cell-based; settings: Homo sapiens; across all 50 cell lines; read-out: average EC50 for inhibition of cancer cell proliferation
Method in brief: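 Human cancer cell lines from breast, colorectal, haematopoietic/lymphoid, liver, lung, ovarian, pancreatic and prostate tumours were seeded at 300-3,000 cells/well and exposed to compound in duplicate for four days at 37° C, 5% CO2. Viable cells were measured by ATP luminescence; EC50 values came from dose-response curves.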

[8] = DND41, DND-41 cell line, read-out: Haematopoietic & Lymphoid tumors, EC50 (μM) DND-41
[9] = MV4-11, MV-4-11 cell line, read-out: Haematopoietic & Lymphoid tumors, EC50 (μM) MV-4-11
[10] = Rec1, REC-1 cell line, read-out: Haematopoietic & Lymphoid tumors, EC50 (μM) REC-1
[11] = SU-DHL-4, SUDHL4 cell line, read-out: Haematopoietic & Lymphoid tumors, EC50 (μM) SUDHL4
[12] = HL-60 cell line, read-out: Haematopoietic & Lymphoid tumors, EC50 (μM) HL-60
[13] = JM1 cell line, read-out: Haematopoietic & Lymphoid tumors, EC50 (μM) JM1
[14] = JURKAT, Clone E6-1 cell line, read-out: Haematopoietic & Lymphoid tumors, EC50 (μM) JURKAT, Clone E6-1
[15] = JeKo-1 cell line, read-out: Haematopoietic & Lymphoid tumors, EC50 (μM) JeKo-1
[16] = KASUMI-1 cell line, read-out: Haematopoietic & Lymphoid tumors, EC50 (μM) KASUMI-1
[17] = Loucy cell line, read-out: Haematopoietic & Lymphoid tumors, EC50 (μM) Loucy
[18] = MOLT-4 cell line, read-out: Haematopoietic & Lymphoid tumors, EC50 (μM) MOLT-4
[19] = TF-1 cell line, read-out: Haematopoietic & Lymphoid tumors, EC50 (μM) TF-1
[20] = TOLEDO cell line, read-out: Haematopoietic & Lymphoid tumors, EC50 (μM) TOLEDO
[21] = PA-1, PA1 cell line, read-out: Ovarian cancer, EC50 (μM) PA1
[22] = TOV112D, TOV-112D cell line, read-out: Ovarian cancer, EC50 (μM) TOV-112D
[23] = OV-90 cell line, read-out: Ovarian cancer, EC50 (μM) OV-90
[24] = OVCAR-3 cell line, read-out: Ovarian cancer, EC50 (μM) OVCAR-3
[25] = SNU-398, SNU398 cell line, read-out: Liver cancer, EC50 SNU398
[26] = HEPG2 cell line, read-out: Liver cancer, EC50 HEPG2
[27] = PLC/PRF/5 cell line, read-out: Liver cancer, EC50 PLC/PRF/5
[28] = A-427, A427 cell line, read-out: Lung cancer, EC50 (μM) A427
[29] = HCC78, HCC-78 cell line, read-out: Lung cancer, EC50 (μM) HCC-78
[30] = NCI-H460 cell line, read-out: Lung cancer, EC50 (μM) NCI-H460
[31] = NCI-H522 cell line, read-out: Lung cancer, EC50 (μM) NCI-H522
[32] = HCT-116, HCT116 cell line, read-out: Colorectal cancer, EC50 (μM) HCT116
[33] = HT-29, HT29 cell line, read-out: Colorectal cancer, EC50 (μM) HT29
[34] = SW-620, SW620 cell line, read-out: Colorectal cancer, EC50 (μM) SW620
[35] = DLD-1 cell line, read-out: Colorectal cancer, EC50 (μM) DLD-1
[36] = SW48 cell line, read-out: Colorectal cancer, EC50 (μM) SW48
[37] = SW480 cell line, read-out: Colorectal cancer, EC50 (μM) SW480
[38] = BXPC-3, BxPC3 cell line, read-out: Pancreatic cancer, EC50 BxPC3
[39] = CAPAN-1, Capan1 cell line, read-out: Pancreatic cancer, EC50 Capan1
[40] = Capan-2, Capan2 cell line, read-out: Pancreatic cancer, EC50 Capan2
[41] = MIA PaCa-2 cell line, read-out: Pancreatic cancer, EC50 MIA PaCa-2
[42] = PANC 05.04 cell line, read-out: Pancreatic cancer, EC50 PANC 05.04
[43] = PANC-1 cell line, read-out: Pancreatic cancer, EC50 PANC-1
[44] = UPAFII cell line, read-out: Pancreatic cancer, EC50 UPAFII
[45] = DU-145, read-out: Prostate cancer EC50 Du-145
[46] = PC-3, PC3 cell line, inhibition of cancer cell proliferation, read-out: Prostate cancer EC50 PC3
[47] = 22Rv1 cell line, inhibition of cancer cell proliferation, read-out: Prostate cancer EC50 22Rv1
[48] = LNCap clone FGC cell line, inhibition of cancer cell proliferation, read-out: Prostate cancer EC50 LNCap clone FGC
[49] = VCaP (Sigma) cell line, inhibition of cancer cell proliferation, read-out: Prostate cancer EC50 VCaP (Sigma)

Chain of CLK3 (P49761 whole entry): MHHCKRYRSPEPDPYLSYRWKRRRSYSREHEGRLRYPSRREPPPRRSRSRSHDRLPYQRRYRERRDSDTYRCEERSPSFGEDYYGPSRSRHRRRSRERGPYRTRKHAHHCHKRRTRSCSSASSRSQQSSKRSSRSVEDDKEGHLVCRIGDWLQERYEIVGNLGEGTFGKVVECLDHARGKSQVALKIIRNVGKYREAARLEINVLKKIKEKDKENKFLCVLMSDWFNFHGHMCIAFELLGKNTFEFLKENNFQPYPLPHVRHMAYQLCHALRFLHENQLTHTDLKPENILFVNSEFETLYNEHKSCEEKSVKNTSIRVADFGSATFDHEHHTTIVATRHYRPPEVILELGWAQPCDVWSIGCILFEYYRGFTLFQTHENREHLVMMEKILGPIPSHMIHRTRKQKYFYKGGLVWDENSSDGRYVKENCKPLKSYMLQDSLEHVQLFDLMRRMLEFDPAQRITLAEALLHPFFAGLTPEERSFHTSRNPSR
T1 sequence (P49760 whole entry): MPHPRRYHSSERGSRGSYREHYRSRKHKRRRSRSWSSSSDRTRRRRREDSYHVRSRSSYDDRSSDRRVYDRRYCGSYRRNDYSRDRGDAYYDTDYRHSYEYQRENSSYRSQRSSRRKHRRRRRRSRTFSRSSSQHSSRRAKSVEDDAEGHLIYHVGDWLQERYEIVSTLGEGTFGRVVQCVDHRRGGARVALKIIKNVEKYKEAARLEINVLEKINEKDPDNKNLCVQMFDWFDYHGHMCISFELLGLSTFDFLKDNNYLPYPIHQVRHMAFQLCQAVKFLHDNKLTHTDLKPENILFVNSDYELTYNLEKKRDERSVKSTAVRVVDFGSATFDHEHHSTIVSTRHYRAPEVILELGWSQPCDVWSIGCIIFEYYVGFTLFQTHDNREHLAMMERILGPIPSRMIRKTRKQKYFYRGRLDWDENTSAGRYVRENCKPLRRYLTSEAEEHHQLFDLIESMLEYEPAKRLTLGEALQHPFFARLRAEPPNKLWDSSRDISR

Compound: CN1CCC(C(=O)Nc2c[nH]nc2-c2nc3c(-c4ccc(F)s4)cccc3[nH]2)CC1 [Compound 90]
- pEC50 (CLK3): 7.66
- pEC50 (BT-549): 6.94
- pEC50 (HCC1599): 6.90
- pEC50 (T47D): 6.55
- pEC50 (ZR-75-1): 6.67
- pEC50 (MCF7): 6.44
- pEC50 (DU4475): 7.02
- pEC50 (CAMA1): 6.36
- pEC50 (MDA-MB-231-Luc): 6.69
- EC50 [1, 8]: 0.106 µM
- EC50 [1, 9]: 0.008 µM
- EC50 [1, 10]: 0.022 µM
- EC50 [1, 11]: 0.079 µM
- EC50 [1, 12]: 0.246 µM
- EC50 [1, 13]: 0.06 µM
- EC50 [1, 14]: 0.226 µM
- EC50 [1, 15]: 0.04 µM
- EC50 [1, 16]: 0.053 µM
- EC50 [1, 17]: 0.105 µM
- EC50 [1, 18]: 0.125 µM
- EC50 [1, 19]: 0.08 µM
- EC50 [1, 20]: 0.066 µM
- pEC50 (CLK2): 7.95
- EC50 [2, 21]: 0.23 µM
- EC50 [2, 22]: 0.101 µM
- EC50 [2, 23]: 0.361 µM
- EC50 [2, 24]: 0.111 µM
- pEC50 [3, 25]: 7.26
- pEC50 [3, 26]: 6.79
- pEC50 [3, 27]: 6.43
- EC50 [4, 28]: 0.13 µM
- EC50 [4, 29]: 0.136 µM
- EC50 [4, 30]: 0.243 µM
- EC50 [4, 31]: 0.091 µM
- EC50 [5, 32]: 0.06 µM
- EC50 [5, 33]: 0.171 µM
- EC50 [5, 34]: 0.047 µM
- EC50 [5, 35]: 0.131 µM
- EC50 [5, 36]: 0.023 µM
- EC50 [5, 37]: 0.061 µM
- pEC50 [6, 38]: 7.34
- pEC50 [6, 39]: 6.94
- pEC50 [6, 40]: 6.82
- pEC50 [6, 41]: 7.22
- pEC50 [6, 42]: 6.85
- pEC50 [6, 43]: 6.66
- pEC50 [6, 44]: 6.97
- pEC50 [7, 45]: 6.91
- pEC50 [7, 46]: 7.03
- pEC50 [7, 47]: 6.99
- pEC50 [7, 48]: 6.48
- pEC50 [7, 49]: 7.01
- pEC50 (all 50 cell lines): 6.85

Compound: O=C(Nc1c[nH]nc1-c1nc2c(-c3cccc(F)c3)cncc2[nH]1)c1cccnc1 [Compound 91]
- pEC50 (CLK3): 7.65
- pEC50 (BT-549): 7.62
- pEC50 (HCC1599): 8.10
- pEC50 (T47D): 6.40
- pEC50 (ZR-75-1): 6.95
- pEC50 (MCF7): 6.47
- pEC50 (DU4475): 7.34
- pEC50 (CAMA1): 7.06
- pEC50 (MDA-MB-231-Luc): 6.93
- EC50 [1, 8]: 0.014 µM
- EC50 [1, 9]: 0.007 µM
- EC50 [1, 10]: 0.024 µM
- EC50 [1, 11]: 0.009 µM
- EC50 [1, 12]: 0.034 µM
- EC50 [1, 13]: 0.01 µM
- EC50 [1, 14]: 0.031 µM
- EC50 [1, 15]: 0.008 µM
- EC50 [1, 16]: 0.01 µM
- EC50 [1, 17]: 0.013 µM
- EC50 [1, 18]: 0.045 µM
- EC50 [1, 19]: 0.008 µM
- EC50 [1, 20]: 0.019 µM
- pEC50 (CLK2): 8.51
- EC50 [2, 21]: 0.057 µM
- EC50 [2, 22]: 0.102 µM
- EC50 [2, 23]: 0.255 µM
- EC50 [2, 24]: 0.025 µM
- pEC50 [3, 25]: 7.42
- pEC50 [3, 26]: 6.43
- pEC50 [3, 27]: 6.35
- EC50 [4, 28]: 0.064 µM
- EC50 [4, 29]: 0.1 µM
- EC50 [4, 30]: 0.476 µM
- EC50 [4, 31]: 0.06 µM
- EC50 [5, 32]: 0.05 µM
- EC50 [5, 33]: 0.211 µM
- EC50 [5, 34]: 0.044 µM
- EC50 [5, 35]: 0.095 µM
- EC50 [5, 36]: 0.082 µM
- EC50 [5, 37]: 0.078 µM
- pEC50 [6, 38]: 7.66
- pEC50 [6, 39]: 6.99
- pEC50 [6, 40]: 7.13
- pEC50 [6, 41]: 7.40
- pEC50 [6, 42]: 7.22
- pEC50 [6, 43]: 6.38
- pEC50 [6, 44]: 6.87
- pEC50 [7, 45]: 7.04
- pEC50 [7, 46]: 7.51
- pEC50 [7, 47]: 7.68
- pEC50 [7, 48]: 7.30
- pEC50 [7, 49]: 8.05
- pEC50 (all 50 cell lines): 7.00
